Values quoted from earlier work as cited in US12708115B2, “Inground and above ground termite trailing and recruitment products and processes” (Florida Insect Control Group LLC, priority 2023, dated 2026).

Tested on: subterranean termites

For `OCCOc1ccccc1` [2-phenoxyethanol], the “soil-treated detection stations hit by termites” value (field, untreated stations 0 of 20) is given as 5 of 20 and the “feeding on cellulose material surrounded by the treatment” value (soil treatment, Prescott thesis) is given as “feed more”.
